The values below are quoted from earlier work in US20190151234A1, “STABLE LIQUID PHARMACEUTICAL FORMULATIONS OF BENDAMUSTINE” (priority 2016, published 2019).

SMILES strings stand for the structures. Like-named read-outs stand apart in the source and are kept apart here.

For the data set the following is noted: for time stable: 0.25 mg/ml in 0.9% sodium chloride, Pharmazie 1994.

Take `Cl.Cn1c(CCCC(=O)O)nc2cc(N(CCCl)CCCl)ccc21` [Bendamustine HCl, Bendamustine hydrochloride]: the time stable (at 4° C.) is on record as 5 days and the time stable (at 23° C.) was 0.38 days. Besides, the “stability in aqueous solutions” value (aqueous solutions, per U.S. Pat. Nos. 8,609,707, 9,265,831) is “limited to few hours”.
